Tests used:
MCF7 = assay: Cell uptake by MTN fluorescence EX620/EM680 (Examples 10 and 13, EX051605); assay type: cell-based, human; settings: 10% w/w loading in DNA
Description: Materials: HSGDNA, MTN, ODNAS1116 (phosphorothioated, single stranded DNA, and Beta-cyclodextrin polymer (BCD-SBE, KKBIOMED Inc.) were previously prepared in water at 10 mg/ml, 1 mg/ml, 0.95 mg/ml, and 10 mg/ml respectively.
Procedure: For NAC-MTN, combined 37 ul HSGDNA (herring genomic DNA, Promega Inc.), 1426 ul HBSS( Hank's buffered saline, Sigma-Aldrich), with 37 ul of MTN, followed by 1500 ul 2× DMEM media to give 3 ml final and 24 uM (24 micro-molar) MTN and 10% w/w drug loading of MTN. For NAC-MTN (AR1505) combined 62 ul of HSDNA (deg. herring sperm DNA, Sigma) with 2377 ul HBSS, 61.7 ul MTN, 2500 ul 2× media to give 5 ml final and 24 uM MTN and 10% w/w drug loading of MTN to HSDNA. […]
Plate#1 Media was aspirated and cells treated with 100 ul of either NAC-MTN, CD-MTN, or MTN at 24 uM MTN final or 12.3 ug/ml MTN in all samples. Samples containing MTN were incubated 4 hours, removed, and fluorescence taken at EX620/EM680. […]
Samples were incubated 4 hours, removed, and MTN fluorescence taken at EX620/EM680. […] Average MTN fluorescence was averaged from 6 wells. For each cell type, MTN fluorescence was highest in MTN treated cells, followed by CD-MTN, and lowest in NAC-MTN. […]
PLATE#2: Dispensed 50 ul from source plate into plate #2 to give 150 ul final vol 4.1 ug/ml, 8 uMfinal per well, pre-read fluorescence w samples (bkgd) incubated 5 hr, removed, replaced w/ media, read fluor. […]

[1] = DNA addition method: NAC complexed vs unbound MTN in mouse urine (Example 17)
Procedure: To determine if NAC-MTN was excreted in urine as a complex, MTN fluorescence due to unbound NAC was assayed by an addition method. DNA was added to urine from both groups and subsequent change in fluorescence was measured.

Which “% reduction in fluorescence relative to MTN alone (MTN = 0%)” value (MCF7; Plate#1, 24 uM MTN, 4 hours) does the source give for O=C1c2c(O)ccc(O)c2C(=O)c2c(NCCNCCO)ccc(NCCNCCO)c21 [MTN, mitoxantrone] here?
Its value is 0%.

What about the “% reduction in fluorescence relative to MTN alone (MTN = 0%)” value (MCF7; Plate#2, 8 uM MTN) of the same compound?
Its value is 0%.

And the “% Change Fluor. on DNA addition to urine” value ([1]; Elapsed Time 2.5 hr)?
The value was 83%.

And the “% Change Fluor. on DNA addition to urine” value ([1]; Elapsed Time 5 hr)?
Its value is 66%.

What about the “% Change Fluor. on DNA addition to urine” value ([1]; Elapsed Time 8 hr) of the same compound?
The value was 71%.
